Data as given in US10577399B2, “Modified lantibiotics and methods of making and using the modified lantibiotics” (priority 2016, dated 2020).
No end group written: not given here.

Assays:
[1] = test system: S. aureus ATCC 25923; experiment: MIC/MLC assay against S. aureus; assay type: cell-based, Staphylococcus aureus; conditions: Table 11
[2] = test system: S. pneumoniae AI8; experiment: MIC against clinical S. pneumoniae isolate AI8; assay type: cell-based, Streptococcus pneumoniae; conditions: 50% blood added
Protocol: (§1) Minimum Inhibitory Concentrations (MICs) were determined according to previously published protocol^31. A stock solution of the antibiotics tested was first suspended in 50% acetonitrile (ACN) at a concentration 640 μg/mL. This stock was subsequently diluted 2-fold until a final concentration 0.156 μg/mL was reached. Subsequently, 10 μl of each dilution was placed into a well on a 96 well microtiter plate. M. luteus ATCC 10240, S. pneumoniae, and B. subtilis PY79 were grown overnight in THyex at 37° C. Cultures were diluted in the morning to 0.1 OD600 and allowed to grow to 0.6 OD600. This culture was diluted a 100-fold in fresh THyex media and then 400 μl of this culture was added to 10 mL of fresh THyex. The suspension contains approximately 10^5 colony forming units (CFUs). The bacterial suspension (190 μL) was added to each well containing 10 μL of antibiotic suspension or solvent blank. […] Following the 15 minute pretreatment, 190 μL was added to each well as described above. The MIC is described as the […] concentration of antibiotic that prevented visible growth after 24 hours.
(§2) Selective activity and stability of analogs: Several core peptide mutants are provided that have improved activity against our ATCC strain of S. pneumoniae. […]

[3] = test system: S. pneumoniae AI14; experiment: MIC against clinical S. pneumoniae isolate AI14; assay type: cell-based, Streptococcus pneumoniae; conditions: 50% blood added
Protocol: as §1, §2

[4] = test system: S. pneumoniae ATCC 27336; assay type: cell-based, Streptococcus pneumoniae; conditions: Table 11
Protocol: as §1, with “hours. […]” for “hours.”

[5] = test system: S. pneumoniae AI17; experiment: MIC against clinical S. pneumoniae isolate AI17; assay type: cell-based, Streptococcus pneumoniae; conditions: 50% blood added
Protocol: as §1, §2

[6] = test system: C. accolens KPL 1818; experiment: MIC/MLC assay against C. accolens KPL 1818; assay type: cell-based; conditions: THyex broth with 1% Tween 80
[7] = test system: S. pneumoniae AI16; experiment: MIC against clinical S. pneumoniae isolate AI16; assay type: cell-based, Streptococcus pneumoniae; conditions: 50% blood added
Protocol: as §1, §2

[8] = test system: C. accolens ATCC 49725; experiment: MIC/MLC assay against C. accolens ATCC 49725; assay type: cell-based; conditions: THyex broth with 1% Tween 80
[9] = test system: M. luteus ATCC 10240; assay type: cell-based, Micrococcus luteus; conditions: Table 11
Protocol: as §1
FIG. 11 illustrates the bioactivity of various core peptide mutants of mutacin 1130. The activity of the core mutant peptides is expressed as a ratio of the area of the zone of inhibition of each mutant strain to the area of the zone of inhibition of the wild-type strain against indicator strain of Micrococcus luteus. […] The deferred antagonism assay is an overlay assay of the indicator strain onto plates containing heat killed colonies of the mutacin producer strain after growing overnight. Core peptide mutants having inhibitory activity were isolated and the purified products were further evaluated by a standard minimum inhibitory concentration (MIC) assay.

[10] = test system: S. pneumoniae AI11; experiment: MIC against clinical S. pneumoniae isolate AI11; assay type: cell-based, Streptococcus pneumoniae; conditions: 50% blood added
Protocol: as §1, §2

[11] = test system: B. subtilis PY79 cells; experiment: Confocal microscopy localization of fluorescein labeled peptides; assay type: cell-based, Bacillus subtilis; conditions: 10 μg/mL, 15 minutes
Protocol: B. subtilis PY79 was grown and treated with fluorescein labeled peptide as previously described^39. A fresh plate of B. subtilis was used to inoculate THyex broth and incubated approximately 16 hours at 37° C. The culture was diluted 20-fold and placed back in the incubator for 3 hours at 37° C. Then, 100 μl of the culture was incubated with the antibiotic (10 μg/mL) for 15 minutes. The cells were pelleted and resuspended in 100 μl of phosphate buffer solution (PBS). The wash step was repeated three times before fixing with 1.6% formaldehyde in PBS. After fixation the cells were washed with PBS three more times and the remaining pellet was suspended in 50 μL of PBS. The sample (30 μL) was added to a slide and observed using an Olympus confocal microscope with a 100×/0.90 dry objective. A 488 nm argon laser was used to excite the fluorophore. For the competition assay, the bacterial culture was initially incubated with mu1140-COOH or native mutacin 1140 at a concentration of 10 μg/mL for 15 minutes, washed, and resuspended in fresh media. 10 μg/mL of fluorescein labeled nisin was then added for 15 minutes, before following the wash protocol previously stated.

[12] = test system: M. luteus ATCC 10240; experiment: Deferred antagonism (overlay) assay, zone of inhibition; assay type: cell-based, Micrococcus luteus; conditions: relative to wild-type strain
Protocol: The deferred antagonism assay was performed as previously described^39. S. mutans strains were grown overnight in THyex broth at 37° C. The cultures were diluted to 0.1 OD OD600 and grown to mid-logarithmic phase before diluting to 0.05 OD600. Then, 2 μl of the cultures were spotted on THyex plates in duplicates of triplicates. The wild-type S. mutans JH1140 and S. mutans ΔmutA were used as positive and negative controls for activity, respectively. The plates were incubated for 18 hours in a candle jar at 37° C. After incubation, the strains were heat killed at 65° C. for 90 minutes. Fresh M. luteus grown overnight at 37° C. on THyex plates were used to inoculate pre-warmed THyex broth. The culture was grown to 0.6 to 0.8 OD before diluting to 0.2 OD600. The culture was further diluted 25-fold in melted (42° C.) THyex top agar. Approximately 5 mL of the top agar solution was spread on the heat killed bioassay plates and allowed to cool for 10 minutes. The plates were then placed in the incubator (at 37° C.) for 18 hours.
Streptococcus mutans ATCC 55676 (wild-type) and the mutants that were at an OD600 of 0.2 were spotted in triplicates on a pre-warmed THyex agar plate (150×15 mm) and allowed to dry. This assay was performed in this manner to ensure that each sample had the same colony size for comparing zones of inhibition. The plate was incubated for 24 hours then placed in an oven at 50° C. for thirty minutes to kill the bacteria before the indicator strain was overlaid. Heat killing the bacteria prevents any further antimicrobial compound production so that results seen are from single day incubation. Zone diameter was measured in millimeters across the plate and compared to wild-type (i.e. zone I for ATCC compared to zone I of Trp4Ala, etc.).

Row | Substance | S. aureus ATCC 25923 MIC [1] [micrograms per milliliter] | S. aureus ATCC 25923 MLC [1] [micrograms per milliliter] | MIC S. pneumoniae AI8 [2] [micrograms per milliliter] | MIC S. pneumoniae AI14 [3] [micrograms per milliliter] | S. pneumonia ATCC 27336 MIC [4] [micrograms per milliliter] | S. pneumonia ATCC 27336 MLC [4] [micrograms per milliliter] | MIC S. pneumoniae AI17 [5] [micrograms per milliliter] | C. accolens KPL 1818 MIC [6] [micrograms per milliliter] | C. accolens KPL 1818 MLC [6] [micrograms per milliliter] | MIC S. pneumoniae AI16 [7] [micrograms per milliliter] | C. accolens ATCC 49725 MIC [8] [micrograms per milliliter] | C. accolens ATCC 49725 MLC [8] [micrograms per milliliter] | M. luteus ATCC 10240 MIC [9] [micrograms per milliliter] | M. luteus ATCC 10240 MLC [9] [micrograms per milliliter] | MIC S. pneumoniae AI11 [10] [micrograms per milliliter] | in vivo localization pattern of fluorescein labeled peptide [11] | in vivo localization pattern of fluorescein labeled peptide ([11]; listed as Fluorescein conjugated nisin) | zone of inhibition / inhibitory activity in deferred antagonism assay [12]
1 | T14G: core peptide mutant of mutacin 1140, Threonine 14 replaced by Glycine (FKSWSLCTPGCARGGSFNSYCC; not fully specified; ends and bridges not checked; UniProt O68586 42-63, looked up, variant T14G) [Mutant T14G] | >32 | >32 | 8 | 1 | 0.5 | 0.5 | 8 | 0.25 | 0.5 | 8 | 0.0625 | 0.0625 | 0.0625 | 0.0625 | 2 |  |  | 
2 | fluorescein labeled nisin: nisin containing a C-terminal conjugate of fluorescein (ITSISLCTPGCKTGALMGCNMKTATCHCSIHVSK-fluorescein; ends and bridges not checked; also: lantibiotic thioether (lanthionine) rings and dehydrated residues, places not given here; UniProt P13068 24-57, looked up) |  |  |  |  |  |  |  |  |  |  |  |  |  |  |  | large green patches on the cell surface | binds and abducts lipid II to form patches | 
3 | T14A: core peptide mutant of mutacin 1140, Threonine 14 replaced by Alanine (FKSWSLCTPGCARAGSFNSYCC; UniProt O68586 42-63, looked up, variant T14A) [Mutant T14A] | 8 | 16 | 8 | 2 | 0.5 | 0.5 | 8 | 0.5 | 2 | 8 | 0.25 | 0.25 | 0.125 | 0.125 | 4 |  |  | no change in activity
